US12428406B2 (PMV Pharmaceuticals, Inc., priority 2019, dated 2025)

What follows are compounds tested against T1, p53 Y220C (Homo sapiens, UniProt P04637, Y220C) (assay: In vitro DNA binding activity assay (HTRF / TR-FRET): stabilization of p53 Y220C and increase of its DNA binding activity). Conditions: recombinant His-tagged p53 Y220C DNA binding domain (aa 94-312), biotin-labeled consensus DNA, incubated at 27° C. or 29° C. for 60 min.
T1 construct: The recombinant protein was a truncation mutant containing only amino acids 94-312 of p53; made in house; host or cells: E. coli
Assay type: biochemical
In short: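 Homogeneous time-resolved fluorescence with E. coli-derived p53 Y220C and biotinylated consensus DNA. Room-temperature incubations of 15 and 20 min precede reading. SC150 denotes the compound concentration required for 50% increased DNA binding.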

T1 sequence (P04637 94-312, change not shown): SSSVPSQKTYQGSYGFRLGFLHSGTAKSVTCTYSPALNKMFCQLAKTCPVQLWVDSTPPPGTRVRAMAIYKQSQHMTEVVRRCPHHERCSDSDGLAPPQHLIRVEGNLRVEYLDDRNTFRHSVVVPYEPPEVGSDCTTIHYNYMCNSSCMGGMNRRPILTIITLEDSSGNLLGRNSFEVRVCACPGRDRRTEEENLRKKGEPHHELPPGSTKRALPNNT

Row | Structure (SMILES) | SC150 (concentration of the compound required to increase the DNA binding activity by 50%)
1 | COc1cc(C(C)(C)C#N)ccc1NCC#Cc1cc2c(NC3CCC(N4CC5(COC5)C4)CC3)cccc2n1CC(F)(F)F [Compound 251A, 2-(3-methoxy-4-{[3-(4-{[(1R,4R)-4-{2-oxa-6-azaspiro[3.3]heptan-6-yl}cyclohexyl]amino}-1-(2,2,2-trifluoroethyl)-1H-indol-2-yl)prop-2-yn-1-yl]amino}phenyl)-2-methylpropanenitrile] | + (+ = 0 μM ≤ SC150 < 0.05 μM)
2 | CN(C)CCOc1cc(S(C)(=O)=O)ccc1NCC#Cc1cc2c(NC3CCS(=O)(=O)CC3)cccc2n1CC(F)(F)F [Compound 1037A, 4-({2-[3-({2-[2-(dimethylamino)ethoxy]-4-methanesulfonylphenyl}amino)prop-1-yn-1-yl]-1-(2,2,2-trifluoroethyl)-1H-indol-4-yl}amino)-1λ^6-thiane-1,1-dione] | ++ (++ = 0.05 μM ≤ SC150 < 0.1 μM)
3 | CNC(=O)c1ccc(NCC#Cc2cc3c(N[C@H]4CC[C@@H](N5CC6(COC6)C5)CC4)cccc3n2CC(F)(F)F)c(OC)c1 [Compound 230A, 3-methoxy-N-methyl-4-{[3-(4-{[(1S,4S)-4-{2-oxa-6-azaspiro[3.3]heptan-6-yl}cyclo-hexyl]amino}-1-(2,2,2-trifluoroethyl)-1H-indol-2-yl)prop-2-yn-1-yl]amino}benzamide] | + (+ = 0 μM ≤ SC150 < 0.05 μM)
4 | COc1cc(S(=O)(=O)CCO)ccc1NCC#Cc1cc2c(N[C@@H]3CCN(C)C[C@@H]3F)cccc2n1CC(F)(F)F [Compound 939A, 2-(4-{[3-(4-{[(3S,4R)-3-fluoro-1-methylpiperidin-4-yl]amino}-1-(2,2,2-trifluoroethyl)-1H-indol-2-yl)prop-2-yn-1-yl]amino}-3-methoxybenzenesulfonyl)ethan-1-ol] | + (+ = 0 μM ≤ SC150 < 0.05 μM)
5 | COc1cc(S(C)(=O)=O)ccc1NCC#Cc1cc2c(NC3CCC(N)CC3F)cccc2n1CC(F)(F)F (stereo not shown) [Compound 37A] | + (+ = 0 μM ≤ SC150 < 0.05 μM)
6 | CNC(=O)c1ccc(NCC#Cc2cc3c(N[C@H]4CC[C@H](C#N)CC4)cccc3n2CC(F)(F)F)c(OC)c1 [Compound 34A, 3-methoxy-N-methyl-4-{[3-(4-{[(1R,4R)-4-cyanocyclohexyl]amino}-1-(2,2,2-trifluoroethyl)-1H-indol-2-yl)prop-2-yn-1-yl]amino}benzamide] | + (+ = 0 μM ≤ SC150 < 0.05 μM)
7 | COc1cc(C(F)(F)F)ccc1NCC#Cc1cc2c(N[C@H]3CC[C@H](N4CC5(COC5)C4)CC3)cccc2n1CC(F)(F)F [Compound 277A, 2-(3-{[2-methoxy-4-(trifluoromethyl)phenyl]amino}prop-1-yn-1-yl)-N-[(1R,4R)-4-{2-oxa-6-azaspiro[3.3]heptan-6-yl}cyclohexyl]-1-(2,2,2-trifluoroethyl)-1H-indol-4-amine] | ++ (++ = 0.05 μM ≤ SC150 < 0.1 μM)
8 | CCC(=O)NS(=O)(=O)c1ccc(NCC#Cc2cc3c(N[C@H]4CC[C@H](N5CC6(COC6)C5)CC4)cccc3n2CC(F)(F)F)c(OC)c1 [Compound 206A, N-(3-methoxy-4-{[3-(4-{[(1R,4R)-4-{2-oxa-6-azaspiro[3.3]heptan-6-yl}cyclo-hexyl]amino}-1-(2,2,2-trifluoroethyl)-1H-indol-2-yl)prop-2-yn-1-yl]amino}benzene-sulfonyl)propanamide] | + (+ = 0 μM ≤ SC150 < 0.05 μM)
9 | COc1cc(S(N)(=O)=O)ccc1NCC#Cc1cc2c(N[C@H]3CC[C@H](N4CC(S(C)(=O)=O)C4)CC3)cccc2n1CC(F)(F)F [Compound 190A, 3-methoxy-4-{[3-(4-{[(1R,4R)-4-(3-methanesulfonyl-azetidin-1-yl)cyclo-hexyl]amino}-1-(2,2,2-trifluoroethyl)-1H-indol-2-yl)prop-2-yn-1-yl]amino}benzene-1-sulfonamide] | + (+ = 0 μM ≤ SC150 < 0.05 μM)
10 | COCC(O)CN1CCC(Nc2cccc3c2cc(C#CCNc2ccc(S(C)(=O)=O)cc2OCC#N)n3CC(F)(F)F)CC1 (stereo not shown) [Compound 642A, 2-(2-{[3-(4-{[1-(2-hydroxy-3-methoxypropyl)piperidin-4-yl]amino}-1-(2,2,2-trifluoroethyl)-1H-indol-2-yl)prop-2-yn-1-yl]amino}-5-methanesulfonylphenoxy) acetonitrile] | + (+ = 0 μM ≤ SC150 < 0.05 μM)
11 | CNC(=O)c1ccc(NCC#Cc2cc3c(N[C@H]4CC[C@H](N5CCCC(OC)C5)CC4)cccc3n2CC(F)(F)F)c(OC)c1 (stereo partly drawn) [Compound 356A, 3-methoxy-N-methyl-4-{[3-(4-{[(1R,4R)-4-(3-methoxypiperidin-1-yl)cyclohexyl]amino}-1-(2,2,2-trifluoroethyl)-1H-indol-2-yl)prop-2-yn-1-yl]amino} benzamide] | + (+ = 0 μM ≤ SC150 < 0.05 μM)
12 | CCN1CC[C@@H](Nc2cccc3c2cc(C#CCNc2ccc(C(N)=O)cc2OC)n3CC(F)(F)F)[C@@H](F)C1 [Compound 1063A, 4-{[3-(4-{[(3S,4R)-1-ethyl-3-fluoropiperidin-4-yl]amino}-1-(2,2,2-trifluoroethyl)-1H-indol-2-yl)prop-2-yn-1-yl]amino}-3-methoxybenzamide] | + (+ = 0 μM ≤ SC150 < 0.05 μM)
13 | COc1cc(C(N)=O)ccc1NCC#Cc1cc2c(N[C@H]3CCNC[C@H]3F)cccc2n1CC(F)(F)F [Compound 868A, 4-{[3-(4-{[(3R,4S)-3-fluoropiperidin-4-yl]amino}-1-(2,2,2-trifluoroethyl)-1H-indol-2-yl)prop-2-yn-1-yl]amino}-3-methoxybenzamide] | + (+ = 0 μM ≤ SC150 < 0.05 μM)

The next lines start with the values.

Row | SC150 (concentration of the compound required to increase the DNA binding activity by 50%) | Structure (SMILES)
14 | + (+ = 0 μM ≤ SC150 < 0.05 μM) | COc1cc(S(C)(=O)=O)ccc1NCC#Cc1cc2c(N[C@@H]3CN(C)CC[C@@H]3F)cccc2n1CC(F)(F)F (racemic) [Compound 1067A, rac-N-[(3R,4S)-4-fluoro-1-methylpiperidin-3-yl]-2-{3-[(4-methanesulfonyl-2-methoxyphenyl)amino]prop-1-yn-1-yl}-1-(2,2,2-trifluoroethyl)-1H-indol-4-amine]
15 | + (+ = 0 μM ≤ SC150 < 0.05 μM) | COCC(=O)N1CCC(Nc2cccc3c2cc(C#CCNc2ccc(S(C)(=O)=O)cc2OC)n3CC(F)(F)F)CC1 [Compound 741A, 1-{4-[(2-{3-[(4-methanesulfonyl-2-methoxyphenyl)amino]prop-1-yn-1-yl}-1-(2,2,2-trifluoroethyl)-1H-indol-4-yl)amino]piperidin-1-yl}-2-methoxyethan-1-one]
16 | + (+ = 0 μM ≤ SC150 < 0.05 μM) | COc1cc(S(=O)(=O)N(C)C)ccc1NCC#Cc1cc2c(NC3CCN(CC(O)CO)CC3)cccc2n1CC(F)(F)F (stereo not shown) [Compound 564A, 4-{[3-(4-{[1-(2,3-dihydroxypropyl)piperidin-4-yl]amino}-1-(2,2,2-trifluoroethyl)-1H-indol-2-yl)prop-2-yn-1-yl]amino}-3-methoxy-N,N-dimethylbenzene-1-sulfonamide]
17 | + (+ = 0 μM ≤ SC150 < 0.05 μM) | COc1cc(S(C)(=O)=O)ccc1NCC#Cc1cc2c(NC3CCN([C@H]4CCOC4)CC3)cccc2n1CC(F)(F)F [Compound 723A, 2-{3-[(4-methanesulfonyl-2-methoxyphenyl)amino]prop-1-yn-1-yl}-N-{1-[(3S)-oxolan-3-yl]piperidin-4-yl}-1-(2,2,2-trifluoroethyl)-1H-indol-4-amine]
18 | + (+ = 0 μM ≤ SC150 < 0.05 μM) | CCC(=O)NS(=O)(=O)c1ccc(NCC#Cc2cc3c(NC4CCN(CC(O)COC)CC4)cccc3n2CC(F)(F)F)c(OC)c1 (stereo not shown) [Compound 607A, N-(4-{[3-(4-{[1-(2-hydroxy-3-methoxypropyl)piperidin-4-yl]amino}-1-(2,2,2-trifluoroethyl)-1H-indol-2-yl)prop-2-yn-1-yl]amino}-3-methoxybenzenesulfonyl) propanamide]
19 | ++++ (++++ = 0.2 μM ≤ SC150 < 1 μM) | COc1cc(S(C)(=O)=O)ccc1NCC#Cc1cc2c(NC(=O)N3CCN(C)CC3)cccc2n1CC(F)(F)F [Compound 8A, N-(2-{3-[(4-methanesulfonyl-2-methoxyphenyl)amino]prop-1-yn-1-yl}-1-(2,2,2-trifluoroethyl)-1H-indol-4-yl)-4-methylpiperazine-1-carboxamide]
20 | + (+ = 0 μM ≤ SC150 < 0.05 μM) | COc1cc(S(C)(=O)=O)ccc1NCC#Cc1cc2c(N[C@H]3CN(C)CC[C@H]3O)cccc2n1CC(F)(F)F (racemic) [Compound 766A, rac-(3R,4S)-3-[(2-{3-[(4-methanesulfonyl-2-methoxyphenyl)amino]prop-1-yn-1-yl}-1-(2,2,2-trifluoroethyl)-1H-indol-4-yl)amino]-1-methylpiperidin-4-ol]
21 | + (+ = 0 μM ≤ SC150 < 0.05 μM) | CNS(=O)(=O)c1ccc(NCC#Cc2cc3c(NC4CCN(C)CC4)cccc3n2CC(F)(F)F)c(OC)c1 [Compound 484A, 3-methoxy-N-methyl-4-[(3-{4-[(1-methylpiperidin-4-yl)amino]-1-(2,2,2-trifluoroethyl)-1H-indol-2-yl}prop-2-yn-1-yl)amino]benzene-1-sulfonamide]
22 | + (+ = 0 μM ≤ SC150 < 0.05 μM) | COc1cc(S(C)(=O)=O)ccc1NCC#Cc1cc2c(N[C@H]3CCN(C)C[C@@H]3F)cccc2n1CC(F)(F)F (stereo in doubt) [Compound 774A, N-((3S,4S)-3-fluoro-1-methylpiperidin-4-yl)-2-(3-((2-methoxy-4-(methylsulfonyl)phenyl)amino)prop-1-yn-1-yl)-1-(2,2,2-trifluoroethyl)-1H-indol-4-amine]
